{
  "source": "patent US20230310518A1",
  "about": "“Compositions and Methods for Treating Infections of the Gastrointestinal Tract” (Icahn School of Medicine at Mount Sinai, priority 2020, published 2023)",
  "data": [
    {"system": "patients with rCDI", "experiment": "Validation of bacterial strain engraftment through culturing from donor and recipient post-FMT", "type": "in vivo, human", "conditions": "8 weeks post-FMT; number of strains of the species", "text": "The isolation and sequencing of the transmitted strains from both the donor and the recipient represents a gold standard validation and verification of the commensal Koch’s postulates. […] The inventors cultured strains from 6 recipients both pre- and post-FMT (FIG. 2A) and compared the strain composition to that from the donor, to experimentally validate bacterial strain transmission.", "units": {"Cultured in both donor and recipient post-FMT at 8 weeks": "strains"}, "values": [
      {"compound": "Parabacteroides distasonis", "Cultured in both donor and recipient post-FMT at 8 weeks": 3},
      {"compound": "Bacteroides cellulosilyticus", "Cultured in both donor and recipient post-FMT at 8 weeks": 1},
      {"compound": "Bacteroides fragilis", "Cultured in both donor and recipient post-FMT at 8 weeks": 1},
      {"compound": "Bifidobacterium longum", "Cultured in both donor and recipient post-FMT at 8 weeks": 4}
    ]},
    {"system": "strains included in MTC01", "experiment": "Antibiotic susceptibility, MIC by CLSI standards (Micromyx) and in-house etest", "type": "cell-based", "conditions": "highest value of CLSI and etest methods", "text": "To be suitable for human trials, the strains in the bacterial consortium must be cultivatable in growth media that is free of animal products. The inventors discovered that all 16 bacterial strains can be cultured in a specific animal free media LYH_VIB (Table 7). All strains reach sufficient optical density (OD600) and potency (CFU/mL) cultured in LYH_VIB to be manufactured for human trials (Table 5). For safety considerations, the inventors focused on bacterial consortium strains that would be susceptible to multiple antibiotics. The inventors tested susceptibility to a range of antibiotics for all strains included in MTC01 and the minimal inhibitory concentration (MIC) was determined according to guidelines of the Clinical and Laboratory Standards Institute (CLSI). All strains were susceptible to multiple antibiotics (Table 6). […] The inventors confirmed that all 16 strains were strict anaerobes with no bacterial growth documented for any of the strains under aerobic conditions as confirmed by total aerobic microbial count (TAMC).\nEach strain is susceptible to multiple antibiotics, and all strains are susceptible to three antibiotics (SAM, AMC, MEM). Minimum inhibitory concentrations (MIC) were determined by a CRO [Micromyx, LLC] according to CLSI standards and in-house by etest, keeping the highest value between the two methods: vancomycin (VAN), metronidazole (MTZ), tigecycline (TGC), ampicillin/sulbactam (SAM), amoxicillin/clavulanic acid (AMC), meropenem (MEM), piperacillin/tazobactam (TZP), clindamycin (CLI), ceftriaxone (CRO), moxifloxacin (MOX). […] Finally, multiple test fermentations were used to determine that the volumes for each manufacturing run are well within the 8L capacity of our current manufacturing set-up.", "values": [
      {"compound": "C[C@@H](O)[C@H]1C(=O)N2C(C(=O)O)=C(S[C@@H]3CN[C@H](C(=O)N(C)C)C3)[C@H](C)[C@H]12", "note": "[MEM, meropenem]", "susceptibility of all MTC01 strains to the antibiotic": "susceptible"},
      {"compound": "amoxicillin/clavulanic acid [AMC]", "susceptibility of all MTC01 strains to the antibiotic": "susceptible"},
      {"compound": "ampicillin/sulbactam [SAM]", "susceptibility of all MTC01 strains to the antibiotic": "susceptible"}
    ]}
  ]
}
